For 60 compounds, RP-LC retention time results are on record in the METLIN SMRT retention time set (Domingo-Almenara et al. 2019).

This series in a line: gradient 5% acetonitrile 3 min, to 50% in 2 min, to 85% in 15 min, held 3 min, 100 µL/min. Conditions: column: Zorbax Extend-C18 2.1 x 50 mm; eluents: water / acetonitrile, 0.1% formic acid. The gist of the method:
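Pure standards were run in mixtures of ~100 molecules by HPLC coupled to a quadrupole time-of-flight mass spectrometer. The column was a Zorbax Extend-C18 (2.1 × 50 mm, 1.8 μm) at 100 μL/min, with water and acetonitrile each containing 0.1% formic acid, in positive and negative ionization mode. Dead and dwell volumes were 40 μL and 900 μL. Retention time was taken from computationally picked adduct peaks, each manually inspected, with data collected over 3 months.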
The compound `O=C(Nc1ccccc1F)N1CCc2nnc(C3CC3)n2CC1` displayed an RP-LC retention time of 592 s.

`O=C(Cn1nc2c3cc(-c4ccc(Cl)cc4)nn3ccn2c1=O)Nc1cc(F)ccc1F` showed an RP-LC retention time of 1020 s.

With `COC(=O)c1c(NCCc2c[nH]c3ccccc23)c2cccc(Cl)c2[nH]c1=O`, the RP-LC retention time amounted to 824 s.

With `CCc1noc([C@@H]2CC(F)(F)CN2C(=O)CCc2c(C)noc2C)n1`, the RP-LC retention time is 775 s.

Regarding `CCCC(=O)Nc1ccc2c(c1)CN(C(=O)Cc1ccc(F)cc1)C(C(=O)N(C)C)C2` (stereo not given), the RP-LC retention time was found to be 672 s.

Take `OCCOCCNCc1ccc(-c2ccccc2F)o1`: the RP-LC retention time came out at 616 s.

Take `Cc1ccc(S(=O)(=O)[C@H]2CS(=O)(=O)C[C@@H]2N2CCN(c3ccccc3F)CC2)cc1`: the RP-LC retention time was determined as 994 s.

Compound `CC1CCCCN1Cc1nc(-c2ccc(N(C)Cc3ccccc3)nc2)no1` (stereo not given) had an RP-LC retention time of 912 s.

For the compound `COCCOC1CCN(C(=O)c2cccs2)CC1`, the RP-LC retention time came to 665 s.

`COc1cc(C2C(=O)N(C3CCCC3)CC(=O)N2Cc2ccco2)ccc1OC(C)C` (stereo not given): the RP-LC retention time was found to be 915 s.

As to `O=C(c1noc2c1CCc1sccc1-2)N1CCN(c2ccccn2)CC1`, the RP-LC retention time was 673 s.

For `CCCCC(C)C(=O)N1CCCN(C2=NS(=O)(=O)C(c3ccc(CC)cc3)=C2C)CC1` (stereo not given), the RP-LC retention time worked out at 1020 s.

Regarding `CC1=NS(=O)(=O)N(Cc2ccccc2)C=C1C(=O)OCc1nc(-c2ccccc2)no1`, the RP-LC retention time stood at 1120 s.

`COC(=O)c1ccc2c(=O)n(-c3cccc(C)c3)c(N3CCSC3)nc2c1` yielded an RP-LC retention time of 1130 s.

`CC1CCC(NC(=O)Cn2nc(C(=O)N3CCCC3)c3ccccc32)CC1` (stereo not given) came in with an RP-LC retention time of 892 s.

Compound `O=S(=O)(c1ccccc1)N1CCc2nc(-c3ccccc3)ncc2C1` came in with an RP-LC retention time of 1010 s.

The compound `Cc1ccc(NC(=O)Cn2c(C)nc3cc4c(cc32)OCCO4)c(C)c1` gave an RP-LC retention time of 668 s.

Compound `COc1ccc(-n2c(=O)n(C)c(=O)c3cc(C(=O)Nc4cccc(OC)c4)cnc32)cc1` yielded an RP-LC retention time of 1020 s.

As for `CCOc1ccc(CNc2nc3ccncc3n(CC)c2=O)cc1OC`, the RP-LC retention time is 618 s.

In the case of `CCN(CC)S(=O)(=O)c1ccc2c(c1)CC(C(=O)NCCN1CCCC1)N2C(C)=O` (stereo not given), the RP-LC retention time was 613 s.

For the compound `COC1CCC12CCN(C(=O)Nc1ccccc1)CC2` (stereo not given), the RP-LC retention time came out at 782 s.

Turning to `Cc1cc(Nc2ccc(NC(=O)Cc3cccs3)cc2)nc(N2CCCC2)n1`, the RP-LC retention time came to 595 s.

Regarding `Cc1cc(N2CCOCC2)nc(N2CCN(C(=O)Cc3ccc(F)cc3)CC2)n1`, the RP-LC retention time worked out at 566 s.

For `CN(CCCNC(=O)CN1C(=O)CCn2nc(-c3cn(C)c4ccccc34)cc21)Cc1ccccc1`, the RP-LC retention time is 645 s.

Compound `O=C1CN(C(=O)COc2ccccc2)C(c2ccccc2)c2cc(F)ccc2N1` (stereo not given) displayed an RP-LC retention time of 826 s.

The compound `COc1ccccc1NC(=O)N1CCC(c2nc3ccncc3n2C(C)C)C1` (stereo not given) showed an RP-LC retention time of 551 s.

`Cc1ccc2[nH]cc(CCNC(=O)c3cc(-c4cccnc4)nc4ccccc34)c2c1` had an RP-LC retention time of 784 s.

For `CC(=O)N1CCN(C(=O)c2ccc(O)cc2)CC1`, the RP-LC retention time worked out at 515 s.

The compound `Cc1c(-c2ccccc2)n(O)[n+]([O-])c1-c1ccccc1` registered an RP-LC retention time of 1020 s.

`Cc1c(C(=O)NCCCN2CCC(C)CC2)sc2ncn(CC(=O)N3CCCCC3C)c(=O)c12` (stereo not given) returned an RP-LC retention time of 628 s.

`CCN1CCN(CCNC(=O)Cn2c(=O)n(-c3ccc(F)cc3)c3ncccc32)CC1` gave an RP-LC retention time of 583 s.

Regarding `Cc1nc(-c2cccc(F)c2)sc1CCNC(=O)C(=O)Nc1ccccc1Cl`, the RP-LC retention time was found to be 1160 s.

`CCOC(=O)c1nc(Nc2ccc(C)c(C)c2)c2ccccc2n1` showed an RP-LC retention time of 934 s.

The compound `COc1ccc(C(=O)N2CCCC(c3nnc(-c4ccccc4)o3)C2)cc1` (stereo not given) returned an RP-LC retention time of 804 s.

Regarding `Cn1cnc2cc(-c3noc(CNC(=O)c4ccco4)n3)ccc21`, the RP-LC retention time was 585 s.

For `CNC(=O)[C@@H]1C[C@H](Oc2ccccc2)CN1C(=O)Cn1c(=O)oc2ccccc21`, the RP-LC retention time stood at 732 s.

`O=C(Nc1ccc(-c2nc(-c3ccccc3)co2)cc1)C1CCCCC1`: the RP-LC retention time was 1210 s.

As to `O=C1CC(c2ccco2)Sc2nc3ccccc3n21` (stereo not given), the RP-LC retention time amounted to 796 s.

On to `COCCNC(=O)Cn1c(=O)n(-c2ccc(F)cc2)c2ncccc21`, for which the RP-LC retention time was 652 s.

`Cc1ccc2c(c1)NC1(CCN(S(=O)(=O)c3ccccc3F)CC1)c1cccn1-2` registered an RP-LC retention time of 881 s.

In the case of `O=c1c2nc(-c3ccc(F)cc3)cn2ccn1-c1ccc(F)c(Cl)c1`, the RP-LC retention time came to 888 s.

Turning to `CCn1cc(-c2nc(C(=O)Nc3ccccc3C)cs2)c2cccnc21`, the RP-LC retention time worked out at 1120 s.

Turning to `Cc1ccccc1-c1noc(C2CCCN2S(=O)(=O)c2cccc(Cl)c2C)n1` (stereo not given), the RP-LC retention time turned out to be 1280 s.

Turning to `Cn1c(=O)c2nc(SCCC(=O)Nc3ccc(Cl)cc3)n(C)c2n(C)c1=O`, the RP-LC retention time worked out at 732 s.

As to `COc1ccc(C(=O)Nc2nc(CC(=O)Nc3nc4c(C)cccc4s3)cs2)cc1`, the RP-LC retention time is 1010 s.

Regarding `CCC(C(=O)N1CCN(c2cc(-c3ccc(Cl)cc3)[nH]n2)CC1)c1ccccc1` (stereo not given), the RP-LC retention time is 987 s.

Turning to `CCOC(=O)c1cc(S(=O)(=O)N2CCCC2C(=O)Nc2ccc(NC(C)=O)cc2)cn1C` (stereo not given), the RP-LC retention time was found to be 718 s.

Compound `NC(=O)c1oc2ccccc2c1NC(=O)C1=COCCO1` displayed an RP-LC retention time of 672 s.

Turning to `Cc1cccc(NC(=O)N2CCN(c3ccc(=O)n(-c4ccccc4)n3)CC2)c1`, the RP-LC retention time worked out at 776 s.

Compound `O=C(c1cccnc1)N1CCC(Oc2cc(N3CCCCC3)ncn2)C1` (stereo not given) came in with an RP-LC retention time of 651 s.

Turning to `CCCCN1C(=O)c2ccccc2C(C(=O)NCCC(=O)OC)C12CCCCC2` (stereo not given), the RP-LC retention time stood at 868 s.

Regarding `O=C(c1cc(Cl)ccc1F)N1CCN(c2cc(-c3cccs3)[nH]n2)CC1`, the RP-LC retention time worked out at 833 s.

In turn, `Cc1ccccc1Cn1cc(-c2ccncc2)cc1C(=O)NCC(C)C` returned an RP-LC retention time of 712 s.

`C(#Cc1ccccc1)CN1CCN(CC#Cc2ccccc2)CC1` returned an RP-LC retention time of 616 s.

`Cc1cc(C)cc(S(=O)(=O)Nc2ccc3c(c2)CCC(=O)N3CC(C)C)c1` showed an RP-LC retention time of 928 s.

Turning to `COc1cccc2nc(NC(=O)c3ccc(Br)s3)sc12`, the RP-LC retention time stood at 990 s.

The compound `O=S(=O)(c1cc(F)ccc1F)N1CCN(Cc2cccc(F)c2)C2(CCOCC2)C1` yielded an RP-LC retention time of 886 s.

On to `O=C(CC1CCNCC1)N1CCC(CCOc2cccnc2)CC1`, for which the RP-LC retention time stood at 544 s.

As to `Cc1ccc2c(=O)c(C(=O)N3CCC(C)CC3)cn(CC(=O)Nc3ccccc3)c2n1`, the RP-LC retention time worked out at 783 s.

The compound `COc1ccc(OC)c(-c2csc(-c3nnn(-c4ccc(C)cc4)c3N)n2)c1` displayed an RP-LC retention time of 1160 s.
